# Measured values: patent US20230097883A1, “ERGOTHIONEINE PET COMPOUNDS AND METHODS OF USE THEREOF” (VANDERBILT UNIVERSITY, priority 2021, published 2023)
# “Also recorded” adds a separate entry of the source.
# How the values were obtained:
# [1] = system: HeLa cells; assay: DCFH-DA ROS scavenging assay in HeLa cells; format: cell-based
# Source text: We used a commercially available DCFH-DA (2′,7′-dichlorodihydrofluorescein diacetate) probe to assess the ROS scavenging power of ERGO in HeLa and neuroblastoma SH-SY5Y cells. Upon penetrating the cytoplasm, DCFH-DA is deacetylated by endogenous esterases to a non-fluorescent intermediate, followed by oxidation by free radicals. This generates a continuous and extended conjugation system, resulting in the production of highly fluorescent DCF (2′ 7′-dichlorofluorescein). In an aqueous condition, DCF has a maximal excitation and emission of 495 nm and 529 nm, respectively. Well-adhered HeLa or SH-SY5Y cells previously incubated with DCFH-DA were exposed to a commercial ROS initializer and ERGO concentrations ranging from 0-100 mM. […] Each point in the assay was measured in pentaplicate, p<0.0001.
# On day 1, HeLa cells or SH-SY5Y cells were seeded into a 96-well plate with a density of 10,000 cells/mL. […] Immediately afterwards, fluorescence measurement began using a microplate reader (Biotek Industries, Agilent Technologies, Winooski, Vt., USA) with an excitation and emission wavelength of 485 nm and 528 nm, respectively. Each ERGO concentration was measured in pentaplicate.
# [2] = system: 5XFAD mice; assay: Rotarod after ERGO treatment; format: in vivo, mouse; settings: ERGO-treated 5XFAD versus non-treated 5XFAD and WT, three days of testing
# Method: (§1) To address our primary question whether longitudinal consumption of ERGO as a potent antioxidant benefit the brain, three cohorts of animals (n=12 non-treated WT control, n=12 non-treated 5XFAD, and n=18 ERGO-treated 5XFAD) were used (FIG. 3.2A). Starting at the age of 8 weeks, the animals were treated with high doses of ERGO solution (25-50 mg/Kg) formulated in double distilled (dd) water via oral gavage three times a week over the course of eight weeks. To reduce bias in the behavioral experiments with regard to the potential stress during gavage treatment, non-treated animals underwent the identical gavage process with the vehicle, water, only. The efficacy of the therapy was evaluated by behavioral testing, followed by three different non-invasive PET imaging sessions to assess biomarkers related to AD pathology. In addition to assessing Abeta levels and glucose metabolism using the [^11C]PIB and [^18F]FDG probes, respectively; we also tested for the first time whether oxidative stress could be used as an indicator of response to therapy using the [^11C]ERGO PET radioligand. Finally, animals were euthanized, and the brains were collected for immunohistochemical analysis. […]
# Neuromuscular ability and motor learning were assessed using a standard rotarod (Ugo Basile). […] Time to fall was recorded automatically when mice fell from the rod onto a base plate.
# [3] = system: 5XFAD mice; assay: Novel object recognition after ERGO treatment; format: in vivo, mouse; settings: ERGO-treated 5XFAD versus non-treated 5XFAD and WT, final test trial
# Method: as §1, with “pathology.” for “pathology. In addition to assessing Abeta levels and glucose metabolism using the [^11C]PIB and [^18F]FDG probes, respectively; we also tested for the first time whether oxidative stress could be used as an indicator of response to therapy using the [^11C]ERGO PET radioligand. Finally, animals were euthanized, and the brains were collected for immunohistochemical analysis.”
# Mice were first allowed to habituate to an open arena for 5 min (white acrylic box, approximately 40 cm^2) located under a camera to record position and movement during trials. […] Preference for either object was inferred from exploratory proximity which was recorded automatically using AnyMaze using a target area comprising a circle with diameter 2-cm larger than the target objects. […]
smiles,measurement,setting,value
"C[N+](C)(C)[C@@H](Cc1c[nH]c(=S)[nH]1)C(=O)[O-] [ERGO, L-ergothioneine]",DCF fluorescence signal (ROS),[1]; ERGO 100 mM,nearly negligible; also recorded: quenches the fluorescence totally
same,DCF fluorescence signal (ROS),[1]; ERGO starting from 5 mM,attenuates the fluorescence significantly
same,"rotarod latency to fall, group differences",[2],no differences among the groups
same,discrimination index,[3],did not vary among the groups
